From US20120282201A1, “NOVEL COMPOUNDS” (priority 2009, published 2012)

Assay: Comparative example: solubility of BMDBM in 1:1 (w/w) mixture of C12-15 alkyl benzoate and a polymeric or solid UV-filter
Assay type: physicochemical
Description: Where necessary the mixture was centrifuged in order to obtain a clear supernatant.

Solubility of BMDBM in C12-15 alkyl benzoate/UV-filter 1:1 (200 mg BMDBM with 1000 mg of 1:1 (w/w) mixture, supernatant by HPLC after 1 month at RT): 3 wt.-% | Δ solubility of BMDBM related to cosmetic solvent (C12-15 alkyl benzoate/UV-filter 1:1): −4 wt.-% | Δ solubility of BMDBM (C12-15 alkyl benzoate/UV-filter 1:1 versus C12-15 alkyl benzoate): −11 wt.-%
SMILES: CCCCC(CC)COc1ccc(-c2nc(-c3ccc(OC)cc3)nc(-c3ccc(OCC(CC)CCCC)cc3O)n2)c(O)c1 (stereo not drawn) [BEMT, bis-ethylhexyloxyphenol methoxyphenyl triazine]
